Results on 15 molecules are retold here after BindingDB's records for patent US12357603 (Bayer Aktiengesellschaft; The Broad Institute, Inc., 2025).

In experiment [1] the target is T1, Histone acetyltransferase KAT6B [431-2073] (Homo sapiens (Human), UniProt Q8WYB5).
T1 construct: 431-2073
Description: Kat6b Activity Assay.

The target of experiment [2] is Histone acetyltransferase KAT6A (UniProt Q92794). Description: Kat6a Activity Assay. The protocol: Recombinant human His-tagged Kat6a protein (amino acids 194-810), was purified in-house from Baculovirus-infected insect cells (Sf9). Histone H4 peptide (amino acids 1-24, […]-VLRD-K(Btn)-amide), which was used as substrate, was synthesized by Biosyntan GmbH, Berlin, Germany. Acetyl Coenzyme A was purchased from Sigma-Aldrich (#A-2056).Kat6a was incubated for 60 mins at 22° C. in the presence of different concentrations of test substances (0 μM, and within the range 0.01-20 μM) in assay buffer [25 mM Tris/HCl pH 8, 1 mM EGTA, 2.5 mM Glutathion, 0.02% Chicken Albumin, 0.05% Pluronic F127, 25 mM NaCl, 220 nM H4 peptide and 600 nM Acetyl Coenzym A].The reaction was stopped by addition of Detection Solution (25 mM HEPES pH 7.5, 0.1% BSA, 22 nM SAXL665 (Cisbio #610SAXLE), 100 μM Anacardic Acid (Enzo #ALX-270-381), 1 nM Anti-Histone H4 (ACETYL K8) Antibody (ABCAM #AB15823) and 0.5 nM Anti-Rabbit IgG Eu (Perkin Elmer #AD0083).
Histone acetyltransferase KAT6A, sequence (Q92794 whole entry, the tested form may be a part): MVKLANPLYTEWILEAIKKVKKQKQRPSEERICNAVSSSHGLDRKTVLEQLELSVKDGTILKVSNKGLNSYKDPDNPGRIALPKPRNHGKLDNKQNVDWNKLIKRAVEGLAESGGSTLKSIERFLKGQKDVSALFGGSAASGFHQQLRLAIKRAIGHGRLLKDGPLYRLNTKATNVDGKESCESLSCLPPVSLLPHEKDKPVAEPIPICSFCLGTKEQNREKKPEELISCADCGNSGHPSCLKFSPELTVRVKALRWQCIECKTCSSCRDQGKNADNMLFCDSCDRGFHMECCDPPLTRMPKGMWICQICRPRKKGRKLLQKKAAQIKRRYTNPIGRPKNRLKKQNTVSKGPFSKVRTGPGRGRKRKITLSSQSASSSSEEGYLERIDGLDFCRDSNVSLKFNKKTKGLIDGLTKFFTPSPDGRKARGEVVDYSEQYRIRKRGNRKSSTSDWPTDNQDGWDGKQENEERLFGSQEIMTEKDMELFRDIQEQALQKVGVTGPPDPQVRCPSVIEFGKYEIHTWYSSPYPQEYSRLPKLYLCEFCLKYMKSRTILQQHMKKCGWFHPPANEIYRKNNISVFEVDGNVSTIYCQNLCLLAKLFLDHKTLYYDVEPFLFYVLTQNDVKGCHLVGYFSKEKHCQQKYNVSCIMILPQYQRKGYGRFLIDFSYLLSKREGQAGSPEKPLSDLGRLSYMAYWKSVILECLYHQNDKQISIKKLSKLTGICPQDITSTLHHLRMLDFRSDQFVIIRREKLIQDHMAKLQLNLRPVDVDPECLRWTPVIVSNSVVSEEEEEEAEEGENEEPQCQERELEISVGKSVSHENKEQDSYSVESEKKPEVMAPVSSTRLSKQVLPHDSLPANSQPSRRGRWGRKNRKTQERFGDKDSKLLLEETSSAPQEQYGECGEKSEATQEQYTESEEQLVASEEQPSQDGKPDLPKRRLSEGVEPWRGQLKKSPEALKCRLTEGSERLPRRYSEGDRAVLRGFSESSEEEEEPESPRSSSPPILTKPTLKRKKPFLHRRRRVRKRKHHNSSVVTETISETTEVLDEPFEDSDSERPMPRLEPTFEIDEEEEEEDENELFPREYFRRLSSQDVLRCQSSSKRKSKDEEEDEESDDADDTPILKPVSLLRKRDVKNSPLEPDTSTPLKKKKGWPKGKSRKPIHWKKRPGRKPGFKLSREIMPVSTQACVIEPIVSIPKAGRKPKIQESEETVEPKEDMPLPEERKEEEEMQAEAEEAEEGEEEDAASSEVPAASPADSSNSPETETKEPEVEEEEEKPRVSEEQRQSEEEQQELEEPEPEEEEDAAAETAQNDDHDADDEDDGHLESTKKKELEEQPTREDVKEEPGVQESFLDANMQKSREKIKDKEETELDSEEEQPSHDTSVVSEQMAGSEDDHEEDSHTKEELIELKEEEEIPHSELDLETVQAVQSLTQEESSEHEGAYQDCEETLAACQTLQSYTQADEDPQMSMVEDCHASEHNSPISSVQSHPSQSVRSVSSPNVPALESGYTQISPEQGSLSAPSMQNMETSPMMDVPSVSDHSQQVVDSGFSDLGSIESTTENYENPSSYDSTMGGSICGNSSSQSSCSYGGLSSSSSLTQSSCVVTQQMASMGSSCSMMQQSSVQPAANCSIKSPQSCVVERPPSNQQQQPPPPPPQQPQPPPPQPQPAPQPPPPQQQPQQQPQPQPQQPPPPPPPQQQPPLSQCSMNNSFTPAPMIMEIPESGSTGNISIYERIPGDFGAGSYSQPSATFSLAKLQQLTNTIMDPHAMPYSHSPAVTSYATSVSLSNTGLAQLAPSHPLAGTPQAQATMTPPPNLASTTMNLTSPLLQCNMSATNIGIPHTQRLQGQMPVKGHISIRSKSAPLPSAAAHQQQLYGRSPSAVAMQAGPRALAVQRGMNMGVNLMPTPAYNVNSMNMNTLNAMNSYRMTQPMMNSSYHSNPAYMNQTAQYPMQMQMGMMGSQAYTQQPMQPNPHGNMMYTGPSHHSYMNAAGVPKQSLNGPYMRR

T1 sequence (Q8WYB5 431-2073): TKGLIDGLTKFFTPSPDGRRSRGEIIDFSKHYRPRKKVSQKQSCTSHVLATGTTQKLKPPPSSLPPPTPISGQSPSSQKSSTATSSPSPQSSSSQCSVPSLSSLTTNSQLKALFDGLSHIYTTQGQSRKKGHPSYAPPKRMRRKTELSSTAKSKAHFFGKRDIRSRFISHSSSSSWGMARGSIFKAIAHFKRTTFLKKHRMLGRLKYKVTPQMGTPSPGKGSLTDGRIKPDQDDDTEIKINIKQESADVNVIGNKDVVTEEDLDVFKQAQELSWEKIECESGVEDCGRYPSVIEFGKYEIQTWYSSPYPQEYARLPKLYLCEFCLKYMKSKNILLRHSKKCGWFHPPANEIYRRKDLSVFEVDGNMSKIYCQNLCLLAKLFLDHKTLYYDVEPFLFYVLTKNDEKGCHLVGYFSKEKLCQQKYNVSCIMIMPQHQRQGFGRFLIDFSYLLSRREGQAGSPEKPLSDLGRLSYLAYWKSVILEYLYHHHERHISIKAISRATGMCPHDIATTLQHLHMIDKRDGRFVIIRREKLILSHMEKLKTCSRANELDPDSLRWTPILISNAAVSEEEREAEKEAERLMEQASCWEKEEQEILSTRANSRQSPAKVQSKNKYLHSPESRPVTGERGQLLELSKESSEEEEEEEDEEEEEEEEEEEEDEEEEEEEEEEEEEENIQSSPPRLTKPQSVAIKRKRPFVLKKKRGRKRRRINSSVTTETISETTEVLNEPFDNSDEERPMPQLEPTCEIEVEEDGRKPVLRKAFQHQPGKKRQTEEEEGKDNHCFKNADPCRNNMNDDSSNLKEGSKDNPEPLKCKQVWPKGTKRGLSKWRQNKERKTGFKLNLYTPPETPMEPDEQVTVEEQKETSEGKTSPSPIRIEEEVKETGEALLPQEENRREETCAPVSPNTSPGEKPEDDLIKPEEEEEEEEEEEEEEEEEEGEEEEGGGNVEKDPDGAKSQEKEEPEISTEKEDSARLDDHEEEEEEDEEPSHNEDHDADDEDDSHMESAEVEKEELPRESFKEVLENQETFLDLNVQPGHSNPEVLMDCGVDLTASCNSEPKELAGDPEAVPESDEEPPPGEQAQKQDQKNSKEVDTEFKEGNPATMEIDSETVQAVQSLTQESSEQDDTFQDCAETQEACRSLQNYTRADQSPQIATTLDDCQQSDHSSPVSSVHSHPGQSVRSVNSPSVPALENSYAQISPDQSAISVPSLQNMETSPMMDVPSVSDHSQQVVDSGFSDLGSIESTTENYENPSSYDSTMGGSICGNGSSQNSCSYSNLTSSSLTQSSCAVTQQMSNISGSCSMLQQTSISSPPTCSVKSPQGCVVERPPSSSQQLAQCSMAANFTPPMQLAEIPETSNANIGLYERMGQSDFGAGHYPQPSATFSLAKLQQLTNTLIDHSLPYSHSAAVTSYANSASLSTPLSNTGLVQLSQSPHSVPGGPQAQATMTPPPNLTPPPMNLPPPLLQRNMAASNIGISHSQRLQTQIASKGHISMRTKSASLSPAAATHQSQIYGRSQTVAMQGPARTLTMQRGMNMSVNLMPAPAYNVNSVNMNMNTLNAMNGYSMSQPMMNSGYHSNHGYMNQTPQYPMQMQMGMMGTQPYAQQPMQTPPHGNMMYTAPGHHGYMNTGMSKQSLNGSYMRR

In general, IC50 refers to the concentration that gives 50% inhibition. On to `COCCN(C)c1ccc2cc(C(=O)NS(=O)(=O)c3ccccc3-c3ccccc3)oc2c1` [US12357603, Example 39], for which, in experiment [1], inhibition was half-maximal at 534 nM (IC50). This counts as sub-micromolar.

For `O=C(NS(=O)(=O)c1ccccc1-c1ccccc1)c1cc2ccc(N3CCCC3=O)cc2o1` [US12357603, Example 62], the results for the half-inhibitory concentration (IC50) in experiment [2] and in experiment [1] were 13500 nM and greater than 20000 nM, respectively.

As to `CCOc1ccc(Br)cc1S(=O)(=O)NC(=O)c1cc2ccc(N(C)CCOC)cc2o1` [US12357603, Example 213], half-maximal inhibition in experiment [2] (IC50) was put at 1060 nM.

In the case of `CN(C)c1ccc2cc(C(=O)NS(=O)(=O)c3ccccc3-c3ccc(CO)cc3)oc2c1` [US12357603, Example 51], the IC50 in experiment [2] was 57.3 nM; in experiment [1], 103 nM. `CCCc1ccccc1S(=O)(=O)NC(=O)c1cc2ccc(N(C)C)cc2o1` [US12357603, Example 52] had an IC50 in experiment [2] of 187 nM. In the case of `CCCN(C)c1ccc2cc(C(=O)NS(=O)(=O)c3ccccc3-c3ccccc3)oc2c1` [US12357603, Example 37], the IC50 in experiment [1] was found to be 1060 nM. Regarding `CN(C)c1ccc2cc(C(=O)NS(=O)(=O)c3c(Cl)cccc3Cl)oc2c1` [US12357603, Example 98], in experiment [2], inhibition was half-maximal at 465 nM (IC50).

Consider `CN(c1ccccc1)c1ccc2cc(C(=O)NS(=O)(=O)c3ccc(Cl)cc3Cl)oc2c1` [US12357603, Example 09], for which the IC50 was determined as 2550 nM in experiment [2] and 5720 nM in experiment [1].

Consider `Cc1ccc2cccc(S(=O)(=O)NC(=O)c3cc4cc(C#N)c(N(C)C)cc4o3)c2n1` [US12357603, Example 209], for which the half-maximal inhibitory concentration (IC50) in experiment [2] worked out at 903 nM. As for `CCN(C)c1ccc2cc(C(=O)NS(=O)(=O)c3ccc(Cl)cc3Cl)oc2c1` [US12357603, Example 03], the IC50 in experiment [2] was found to be 1390 nM; in experiment [1], 810 nM.

Molecule `CC(C)Oc1ccccc1S(=O)(=O)NC(=O)c1cc2cc(Br)c(N(C)C)cc2o1` [US12357603, Example 208] had an IC50 in experiment [2] of 7760 nM. This counts as single-digit micromolar.

For the molecule `CN(C)c1ccc2cc(C(=O)NS(=O)(=O)c3ccccc3-c3ccccc3)oc2c1C#N` [US12357603, Example 64], the half-inhibitory concentration (IC50) in experiment [2] is 14300 nM. For `CN(C)c1ccc2cc(C(=O)NS(=O)(=O)c3cc(Cl)cc4cccnc34)oc2c1` [US12357603, Example 124], the concentration for half-maximal inhibition (IC50) in experiment [2] is 92.8 nM; in experiment [1] it was 52.2 nM. The like results for `CN(c1ccc2cc(C(=O)NS(=O)(=O)c3ccccc3-c3ccccc3)oc2c1)C1CCCC1` [US12357603, Example 46] were, in that order, 3650 nM and 112 nM. On to `CN(C)c1c(Br)cc2cc(C(=O)NS(=O)(=O)c3ccccc3-c3ccccc3)oc2c1F` [US12357603, Example 206], for which it took 4700 nM to reach half-maximal inhibition in experiment [2] (IC50).
